According to patent US9610331B2, “Methods for hematopoietic precursor mobilization” (Yeda Research and Development Co. Ltd., priority 2009, dated 2017):
Ends that are not written are not given here. * marks the point of attachment. Palmitoyl = CCCCCCCCCCCCCCCC(=O)*

B1: G-CSF: recombinant human G-CSF (Neupogen, Amgen) (protein, UniProt P09919 31-207, looked up)
Granulocyte …: TPLGPASSLPQSFLLKCLEQVRKIQGDGAALQEKLVSECATYKLCHPEELVLLGHSLGIPWAPLSSCPSQALQLAGCLSQLHSGLFLYQGLLQALEGISPELGPTLDTLQLDVADFATTIWQQMEELGMAPALQPTQGAMPAFASAFQRRAGGVLVASHLQSFLEVSYRVLRHLAQP
modifications: filgrastim

Assays:
CD34+ cells = details: cited from earlier work
C57BL mice = assay: G-CSF induced splenomegaly (spleen weight) in C57BL mice; format: in vivo
Experimental: All animals were maintained under conditions approved by the Institutional Animal Care and Use Committee at the Weizmann Institute. The study protocol was approved by the ethics committees at Weizmann Institute. In these experiments, 8 to 10 week old immune competent C57BL mice were used. All mice were kept in small cages (up to five animals per cage) and fed sterile food.
Mice were treated by daily subcutaneous injections of recombinant human G-CSF (Neupogen, Amgen) at a dose of 250 μg per kg per day for 7 days. To determine the spleen weight, mice were euthanized and spleens were harvested 7 days after the initiation of G-CSF treatment.
Dabigatran etexilate (Boehringer Ingelheim Pharma KG, Biberach, Germany) was administered orally at a dosage of 30 mg/kg. A final volume of 0.3 ml dissolved in DDW was administered daily.
The palmitoylated peptides: pal-RCLSSSAVANRS (PAR1 antagonist, SEQ ID NO: 1) and pal-SGRRYGHALR (PAR4 antagonist, SEQ ID NO: 2) were prepared by solid-phase peptide synthesis using in situ neutralization/HBTU by Hadar Biotec, Israel. The mice were treated by vehicle control, or with PAR1 antagonist or PAR4 antagonist at 0.5 mg/kg, intraperitoneally on daily basis.

bone marrow (BM) cells = assay: Cellular composition of bone marrow by flow cytometry; format: in vivo, mouse; details: for B cells (B220) / Granulocytes (Gr-1) / Macrophages (CD11b) / T cells (CD3): bone marrow, C57BL mice, 7 days treatment, mean ± SD
Experimental: (§1) Membrane expression of different molecules on mouse bone marrow (BM) and spleen cells was detected by flow cytometry, using one- or two-step staining procedures.
(§2) Cellular composition of the hematopoietic compartment was stained by CD3-FITC, B220-PE, CD-11b allophycocyanin and Gr-1 FITC ((Pharmigen, BD).
(§3) After staining, cells were washed and analyzed LSRII (Becton Dickinson) using FlowJo software.
(§4) Comparisons between the different groups were evaluated using the Student's test. Data were expressed as mean±SD, and were considered statistically significant at p values of 0.05 or less.

[1] = test system: hematopoietic progenitors; assay: Colony-forming assay of spleen cells (CFU/spleen); format: in vivo, mice; details: for precursor mobilization (CFU/spleen), enhancement as compared to non-treated mice: antagonist added to G-CSF treatment; for circulating CFU/spleen compared with C57BL/6 mice: at 7 days after G-CSF treatment, P<0.05 vs C57BL/6 (n=5), FIG. 3 legend
Experimental: All animals were maintained under conditions approved by the Institutional Animal Care and Use Committee at the Weizmann Institute. The study protocol was approved by the ethics committees at Weizmann Institute. In these experiments, 8 to 10 week old immune competent C57BL mice and C57BL hemophilic (C57BL Hem F8) mice were used. All mice were kept in small cages (up to five animals per cage) and fed sterile food. Cells were plated in 0.9% methylcellulose (Sigma Chemical Co.), 30% FCS, DMEM medium (Sigma Chemical Co.), 50 ng/ml stem cell factor (SCF), 5 ng/ml IL-3 (R&D Systems Inc.), 5 ng/ml GM-CSF (R&D Systems Inc.), and 2 U/ml erythropoietin (EPO; Orto Bio Tech, Don Mills, Ontario, Canada). Total spleen cells 5×10^5 were seeded in semisolid cultures. Colonies were scored 7 days later under an inverted microscope (CK2; Olympus), applying morphological criteria. To study the role of thrombin in the mobilization of hematopoietic progenitors, inventors enumerated these cells by their ability to form colonies in semi-solid media. Thus, after 7 days of treatment with G-CSF with or without PAR antagonists, the number of hematopoietic progenitors in the spleen was estimated by plating the low density mononuclear cells in methylcellulose containing appropriate nutrients and growth factors (see materials and experimental procedures, above). The plates were incubated for 7 days and the colonies were scored using a low magnification microscope. The number of progenitors mobilized into the spleen was presented as CFU/spleen (FIG. 3). […] However, the addition of PAR1 or PAR4 antagonists to G-CSF treatment led to further enhancement of precursor mobilization by 15.3 and 6.4 fold, respectively (as compared to non-treated mice). Likewise, in Factor VIII knock out (KO) mice, which have low thrombin levels due to the absence of Factor VIII, an enhancement of spleen colonies by a factor of 15.9 was recorded upon treatment with G-CSF.

spleen cells = assay: Cellular composition of spleen by flow cytometry; format: in vivo, mouse; details: for B cells (B220) / Granulocytes (Gr-1) / Macrophages (CD11b) / T cells (CD3): spleen, C57BL mice, 7 days treatment, mean ± SD
Experimental: as §1, §2, §3, §4

Lin−Kit+Sca+ stem cell = assay: Lin-Kit+Sca+ stem cell numbers in blood, spleen and BM by FACS; format: in vivo, mouse; details: FIG. 4
Description: Membrane expression of different molecules on mouse bone marrow (BM), spleen and peripheral blood (PB) mononuclear cells (MNCs) was detected by flow cytometry, using one- or two-step staining procedures.
Cells were stained for lineage negative Lin− (CD3, B220, CD11b, Gr-1 and Ten-119 were biotinilated and detected by strepavidine Pe-Cy7), stem cell factor receptor positive (c-kit allophycocyanin+), stem cell antigen-1 positive (Sca-1 PE+) using Pharmigen, BD.
After staining, cells were washed and analyzed on LSRII (Becton Dickinson) using FlowJo software.
as §4

HSPC = details: after a single injection; cited from earlier work
C57BL/6 mice = details: 7 day daily G-CSF treatment of C57BL/6 mice; cited from earlier work
[2] = with G-CSF for 7 days, antagonist 0.5 mg/kg intraperitoneally daily, FIG. 2

| Molecule | B cells (B220) (bone marrow (BM) cells) [%] | Granulocytes (Gr-1) (bone marrow (BM) cells) [%] | Macrophages (CD11b) (bone marrow (BM) cells) [%] | T cells (CD3) (bone marrow (BM) cells) [%] | precursor mobilization (CFU/spleen), enhancement as compared to non-treated mice ([1]; 7 days, C57BL mice, FIG. 3) [fold] | circulating CFU/spleen compared with C57BL/6 mice [1] | B cells (B220) (spleen cells) [%] | Granulocytes (Gr-1) (spleen cells) [%] | Macrophages (CD11b) (spleen cells) [%] | T cells (CD3) (spleen cells) [%] | G-CSF induced splenomegaly (C57BL mice; [2]) | further results |
| --- | --- | --- | --- | --- | --- | --- | --- | --- | --- | --- | --- | --- |
| c1cc(CN2CCCNCCNCCCNCC2)ccc1CN1CCCNCCNCCCNCC1 [AMD3100] |  |  |  |  |  |  |  |  |  |  |  | mobilization capacity of G-CSF (CD34+ cells; in combination with G-CSF in mice): significantly improves; mobilization of CD34+ cells (CD34+ cells; on its own): adequately |
| CCCCCCOC(=O)NC(=N)c1ccc(NCc2nc3cc(C(=O)N(CCC(=O)OCC)c4ccccn4)ccc3n2C)cc1 [Dabigatran, Dabigatran etexilate, reference compound] |  |  |  |  |  |  |  |  |  |  |  | G-CSF induced splenomegaly (C57BL mice; in conjunction with G-CSF 250 μg per kg per day s.c. for 7 days, Dabigatran etexilate 30 mg/kg orally daily, FIG. 1): marked enhancement |
| pal-RCLSSSAVANRS (Palmitoyl-RCLSSSAVANRS) [PAR1 antagonist] | 13.42 ± 5 | 38.26 ± 5.31 | 34.40 ± 5.16 | 2.28 ± 0.46 | 15.3 | more | 50.57 ± 4.36 | 3.99 ± 2.42 | 2.96 ± 1.18 | 39.59 ± 3.41 | significantly enhanced | Lin−Kit+Sca+ stem cell number in the blood and the spleen (Lin−Kit+Sca+ stem cell; co-treatment with G-CSF): highest increase; Lin−Kit+Sca+ stem cell numbers in the bone marrow (Lin−Kit+Sca+ stem cell; co-treatment with G-CSF): clearly enhanced; Lin−Kit+Sca+ stem cells numbers in the blood and especially in the BM (Lin−Kit+Sca+ stem cell; without G-CSF treatment): marked enhancement |
| pal-SGRRYGHALR (Palmitoyl-SGRRYGHALR) [PAR4 antagonist] | 16.16 ± 7.26 | 50.58 ± 9.74 | 41.06 ± 12.93 | 2.93 ± 1.54 | 6.4 | more | 46.34 ± 4.23 | 4.41 ± 2.08 | 3.53 ± 1.49 | 39.63 ± 3.52 | significantly enhanced | B cell numbers in the BM (bone marrow (BM) cells; Table 2): reduced; B cell numbers in the spleen (spleen cells; summary of Table 1): reduced |
| zymosan |  |  |  |  |  |  |  |  |  |  |  | time to mobilize HSPC (HSPC): ≤ 1 h |
| B1 | 3.18 ± 1.01 | 77.06 ± 7.38 | 74.37 ± 7.79 | 0.98 ± 0.85 |  |  | 47.37 ± 1.33 | 10.21 ± 2.69 | 8.16 ± 2.07 | 34.16 ± 3.17 |  | number of granulocytes and macrophages in the BM (bone marrow (BM) cells; after G-CSF treatment, Table 2): marked elevation; enhancement of spleen colonies ([1]; Factor VIII knock out (KO) mice, upon treatment with G-CSF): 15.9 fold; mobilization of progenitors (CFU/spleen), enhancement as compared to non-treated mice ([1]; G-CSF treatment alone, 7 days, C57BL mice, FIG. 3): 2.8 fold; number of granulocytes and macrophages in the spleen (spleen cells; after G-CSF treatment, summary of Table 1): marked elevation; hematopoietic stem cell (HSC) mobilization and splenomegaly (C57BL/6 mice): induced |
